Earlier results, collected in patent publication US8858963B1, “Tamper resistant composition comprising hydrocodone and acetaminophen for rapid onset and extended duration of analgesia” (Mallinckrodt LLC, priority 2011, dated 2014).

Tested on: hepatic GSH
Conditions: Swiss mice

CC(=O)Nc1ccc(O)cc1 [acetaminophen]
onset of circulating hepatic GSH changes after administration (acetaminophen 100 mg/kg to 600 mg/kg): ≤ 15 min | time of minimum GSH level after injection (all dose groups (100 mg/kg to 600 mg/kg)): 2 h
